Data on three molecules can be found in publication PMC9965125, “New NSAID Conjugates as Potent and Selective COX-2 Inhibitors: Synthesis, Molecular Modeling and Biological Investigation” (Molecules, 2023).

Data set [1] relates to hot plate latency. The data set can be described thus: hot plate assay (central analgesic). It counts as in vivo, mice. Conditions: for % Protection / Latency Period ± SE: 10 mg/kg indomethacin mol equivalent i.p.; for Latency Period ± SE: cutoff 15 sec; for Potency: at 120 min compared to indomethacin. For orientation: Thermal pain tests record how soon the animal reacts.
For data set [2], the system named is mice. In words: toxicological bioassay. The format is in vivo. Conditions: five times the anti-inflammatory dose (50 mg/kg indomethacin mol equivalent); recorded 24 h post-administration. The method, then:
Five times the anti-inflammatory dose was orally administrated. […]
5a, 5b, 5d, 5e) was determined utilizing the standard method in mice. Albino mice weighing 20–25 g were divided into 6 groups of 6 mice each. Administrations of the tested compounds dissolved in distilled water by the aid of few drops of Tween 80 were given intraperitoneally in 50 […]
inflammatory dosage). The control group was given water only with few drops of Tween 80. The toxic symptoms and mortality rates were recorded 24 h post -administration in each group.

The test system of data set [3] is TNF-α mRNA. Conditions: 40 μg/mL; in comparison to LPS-stimulated cells only.
Description: (§1) For this purpose, the mRNA levels of IL-6, TNF-α, and iNOS were measured using real-time qPCR (RT-qPCR).
(§2) Treatment of LPS-stimulated RAW264.7 macrophages was done with 40 µg/mL of the isolated
(§3) Evaluation of inflammatory mRNA expression levels
(§4) Inflammatory mRNA expression levels were evaluated using RT-qPCR (Applied Biosystems, CA, USA). Total RNA was extracted by lysing RAW264.7 cells using Qiazol Lysis Reagent. The extracted RNA was used to synthesize cDNA using RevertAid First Strand cDNA synthesis kit according to manufacturer’s protocol. The cDNA was then added with forward and reverse
(§5) primers, nuclease free water and maxima SYBR green mix (Thermo Fisher Scientific, MA, USA).
(§6) The inflammation-related genes of mRNA expression levels are as follows: IL-6, TNF-α, and
(§7) iNOS. All expression was normalized to GAPDH (endogenous control) and relative fold mRNA
(§8) expression levels were calculated using the comparative 2 −ΔΔCT method. The PCR reaction consists
(§9) of initiation stage at 95 °C for 10 min, after that 40 PCR cycles of d enaturation stage for 15 s at 95
(§10) °C and annealing and extension for 1 min at 60 °C.
Data set [4] concerns IL-6 mRNA. The settings on record: 40 μg/mL; in comparison to LPS-stimulated cells only.
Description: as §1, §2, §3, §4, §5, §6, §7, §8, §9, §10
Data set [5] concerns iNOS mRNA. The settings on record: 40 μg/mL; in comparison to LPS-stimulated cells only.
Description: as §1, §2, §3, §4, §5, §6, §7, §8, §9, §10
Data set [6] concerns LPS-stimulated RAW264.7 macrophages. The data set can be described thus: NO production of LPS-induced RAW264.7 (Griess method). Conditions: 40 μg/mL; LPS 10 ng/mL; LPS only 22 μM, baseline 12.8 μM. It counts as cell-based. For orientation: Griess reagent forms a coloured azo dye with nitrite.

The structures appear in SMILES notation.

On to `C#CCOC(=O)C(C)c1ccc(CC(C)C)cc1` (centres unmarked) [Compound 3, Prop-2-yn-1-yl 2-(4-isobutylphenyl) Propanoate], for which the “% Protection” value turned out to be 55.2% in data set [1] (after 30 min), 48.3% in data set [1] (after 60 min), 19.2% in data set [1] (after 90 min) and 14.9% in data set [1] (after 120 min). Moreover, the “Latency Period ± SE” value in data set [1] (after 30 min) is 10.37 ± 1.6 s; in data set [1] (after 60 min), 10.78 ± 2.1 s; in data set [1] (after 90 min) it was 10.62 ± 2.2 s; in data set [1] (after 120 min) it was 10.35 ± 1.7 s. The Potency in data set [1] is on record as 26.4. Also, in data set [2], the “toxic symptoms or mortality” value is reported as “No toxic symptoms or mortality”.

Turning to `Cc1ccc(-n2cc(COC(=O)C(C)c3ccc(CC(C)C)cc3)nn2)cc1` (centres unmarked) [Compound 5d, (1-(p-Tolyl)-1H-1,2,3-triazol-4-yl)methyl 2-(4-isobutylphenyl)propanoate], the “% Protection” value in data set [1] (after 30 min) is recorded as 65.0%; in data set [1] (after 60 min) it was 35.6%; in data set [1] (after 90 min) it was 20.0%; in data set [1] (after 120 min), 1.2%. The “Latency Period ± SE” value was determined as 11.02 ± 1.4 s in data set [1] (after 30 min), 9.86 ± 0.7 s in data set [1] (after 60 min), 10.69 ± 0.9 s in data set [1] (after 90 min) and 9.12 ± 1.1 s in data set [1] (after 120 min). The molecule also came in with a Potency in data set [1] of 2.1. The “reduction in TNF-α mRNA levels” value in data set [3] stood at 72%. Besides, the “reduction in IL-6 mRNA levels” value in data set [4] is on record as 66.2%. In addition, the “reduction in iNOS mRNA levels” value in data set [5] was 59%. For the same molecule, the “toxic symptoms or mortality” value in data set [2] was “No toxic symptoms or mortality”. Moreover, in data set [6], the “LPS-stimulated NO production (nitrite)” value stood at 1.45 ± 1.3 µM.

Take `COc1ccccc1-n1cc(COC(=O)C(C)c2ccc(CC(C)C)cc2)nn1` (centres unmarked) [Compound 5e, (1-(2-Methoxyphenyl)-1H-1,2,3-triazol-4-yl)methyl 2-(4-isobutylphenyl)propanoate]: the “% Protection” value in data set [1] (after 30 min) is reported as 88.8%; in data set [1] (after 60 min), 44.8%; in data set [1] (after 90 min), 36.03%; in data set [1] (after 120 min, 10 mg/kg), 28%. Moreover, the “Latency Period ± SE” value in data set [1] (after 30 min) was 12.61 ± 2.1 s; in data set [1] (after 60 min), 10.53 ± 1.8 s; in data set [1] (after 90 min), 12.12 ± 1.7 s; in data set [1] (after 120 min) it was 11.53 ± 1.3 s. The molecule further returned a Potency in data set [1] of 49.6. Further, the “reduction in TNF-α mRNA levels” value in data set [3] was 86%. Further, in data set [4], the “reduction in IL-6 mRNA levels” value is listed as 82%. For the same molecule, in data set [5], the “reduction in iNOS mRNA levels” value is 42%. Further, the “toxic symptoms or mortality” value in data set [2] is reported as “No toxic symptoms or mortality”. The “LPS-stimulated NO production (nitrite)” value in data set [6] is “insignificant decrease”.
